Columns and labels:
Assay type in all cases: cell-based
RS4;11-BCL-2 D103Y cells = experiment: Cell proliferation assay (MTS), RS4;11-BCL-2 D103Y engineered cells; conditions: Homo sapiens, 72 h, read-out: RS4, 11 BCL2-D103Y IC50
Text: MTS testing kit was purchased from Promega (Madison, WI, USA). The RPMI-1640, Fetal bovine serum and Penicillin-Streptomycin were purchased from BI (Biological Industries, Beit Haemek, Israel). Puromycin was purchased from Beyotime (shanghai, China). Dimethyl sulfoxide (DMSO) was purchased from Sigma (St. Louis., MO, USA). RS4;11-BCL-2 G101V (Cobioer Lot. #: CBD2021063013P4), RS4;11-BCL-2 D103E (Cobioer Lot. #: CBD2021063013P4), RS4;11-BCL-2 D103Y (Cobioer Lot. #: CBD2022012101P4) and RS4;11-BCL-2 F104L (Cobioer Lot. #: CBD2021063014P4) cells were cultured in RPMI1640 supplemented with 1 ug/mL puromycin, 100 U/mL Penicillin-Streptomycin and 10% FBS.
To investigate whether a compound is able to inhibit the activity of BCL-2 mutation in cells, a mechanism-based assay using engineered cell lines stably overexpressing BCL-2 mutation (RS4;11-BCL-2 G101V, RS4;11-BCL-2 D103E, RS4;11-BCL-2 D103Y, and RS4;11-BCL-2 F104L) was developed. In this assay, the inhibition of BCL-2 mutation was reflected by the inhibition of cell proliferation of engineered RS4;11 cells. Cells were plated into 96-well plates at optimized cell density (RS4;11-BCL-2 G101V: 5000 cells/well; RS4;11-BCL-2 D103E: 7500 cells/well; RS4;11-BCL-2 D103Y: 7500 cells/well; RS4;11-BCL-2 F104L: 5000 cells/well). Plates were incubated at 37° C., with 5% CO2 for 4 h (RS4;11-BCL-2 G101V, RS4;11-BCL-2 F104L) and 24 h (RS4;11-BCL-2 D103E, RS4;11-BCL-2 D103Y), respectively. Compounds were serially diluted and added to the plates with the final concentrations of 10000, 3333.3, 1111.1, 370.4, 123.5, 41.2, 13.7, 4.6 and 1.5 nM. Plates were incubated at 37° C., with 5% CO2 for 120 h (RS4; 11-BCL-2 G101V, RS4; 11-BCL-2 F104L) and 72 h (RS4;11-BCL-2 D103E, RS4;11-BCL-2 D103Y), respectively. 20 μl MTS was added into each well and the plates were incubated at 37° C., with 5% CO2 exactly for 2 h. The absorbance was measured by a microplate reader at 490 nm. IC50 values were calculated using GraphPad Prism 8.0 software.

RS4;11-BCL-2 F104L cells = experiment: Cell proliferation assay (MTS), RS4;11-BCL-2 F104L engineered cells; conditions: Homo sapiens, 120 h, read-out: RS4, 11 BCL2-F104L IC50
Summary of the method: (§1)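 Inhibition of mutant BCL-2 is inferred from reduced proliferation of RS4;11 cells stably overexpressing the mutant. Compounds are tested at 1.5–10000 nM for 120 h (G101V, F104L) or 72 h (D103E, D103Y), with MTS absorbance at 490 nm used to derive IC50.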

Toledo cells = experiment: Cell proliferation assay (MTS), Toledo cells; conditions: Homo sapiens, 72 h
Summary of the method: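 Toledo cells (RPMI-1640, 10% FBS) seeded at 30000 cells/well, rested 4 h, then exposed 72 h at 37 °C, 5% CO2 to compound at nine final concentrations, 1.5–10000 nM. Viability by MTS (2 h), absorbance at 490 nm. IC50 from the concentration-response.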

RS4;11-BCL-2 D103E cells = experiment: Cell proliferation assay (MTS), RS4;11-BCL-2 D103E engineered cells; conditions: Homo sapiens, 72 h, read-out: RS4, 11 BCL2-D103E IC50
Summary of the method: as §1

RS4;11-BCL-2 G101V cells = experiment: Cell proliferation assay (MTS), RS4;11-BCL-2 G101V engineered cells; conditions: Homo sapiens, 120 h, read-out: RS4, 11 BCL2-G101V IC50
Summary of the method: as §1

| Compound | IC50 (RS4;11-BCL-2 D103Y cells) [nM] | IC50 (RS4;11-BCL-2 F104L cells) [nM] | IC50 (RS4;11-BCL-2 D103E cells) [nM] | IC50 (RS4;11-BCL-2 G101V cells) [nM] | IC50 (Toledo cells) [nM] |
| --- | --- | --- | --- | --- | --- |
| COc1ccc(CN2CCN(C3CC4(CCN(c5ccc(C(=O)NS(=O)(=O)c6cnc(NC[C@H]7CC[C@](C)(O)CC7)c([N+](=O)[O-])c6)c(Oc6cc7c(F)c[nH]c7nc6OC)c5)CC4)C3)[C@H](c3ccccc3C(C)C)C2)cn1 [Example 119, 2-((3-fluoro-6-methoxy-1H-pyrrolo[2,3-b]pyridin-5-yl)oxy)-N-((6-((((1r,4r)-4-hydroxy-4-methylcyclohexyl)methyl)amino)-5-nitropyridin-3-yl)sulfonyl)-4-(2-((R)-2-(2-isopropylphenyl)-4-((6-methoxypyridin-3-yl)methyl)piperazin-1-yl)-7-azaspiro[3.5]nonan-7-yl)benzamide] | 10 | 3 | 1 | 1 | 1 |
| COc1nc2[nH]cc(F)c2cc1Oc1cc(N2CCC3(CC2)CC(N2CCN(Cc4ccnc5c4CCO5)C[C@H]2c2ccccc2C(C)C)C3)ccc1C(=O)NS(=O)(=O)c1cnc(NC[C@H]2CC[C@](C)(O)CC2)c([N+](=O)[O-])c1 [Example 190, 4-(2-((R)-4-((2,3-dihydrofuro[2,3-b]pyridin-4-yl)methyl)-2-(2-isopropylphenyl)piperazin-1-yl)-7-azaspiro[3.5]nonan-7-yl)-2-((3-fluoro-6-methoxy-1H-pyrrolo[2,3-b]pyridin-5-yl)oxy)-N-((6-((((1r,4r)-4-hydroxy-4-methylcyclohexyl)methyl)amino)-5-nitropyridin-3-yl)sulfonyl)benzamide] | 8 |  | 1 |  |  |
| COc1ccc(CN2CCN(C3CC4(CCN(c5ccc(C(=O)NS(=O)(=O)c6cnc(NC[C@H]7CC[C@](C)(O)CC7)c([N+](=O)[O-])c6)c(Oc6cc7c(F)c[nH]c7nc6OC)c5)CC4)C3)[C@H](c3ccccc3C(C)C)C2)cc1OC [Example 7, 4-(2-((R)-4-(3,4-dimethoxybenzyl)-2-(2-isopropylphenyl)piperazin-1-yl)-7-azaspiro[3.5]nonan-7-yl)-2-((3-fluoro-6-methoxy-1H-pyrrolo[2,3-b]pyridin-5-yl)oxy)-N-((6-((((1r,4r)-4-hydroxy-4-methylcyclohexyl)methyl)amino)-5-nitropyridin-3-yl)sulfonyl)benzamide] | 9 | 1 | 2 | 1 | 1 |
| COc1nc2[nH]cc(F)c2cc1Oc1cc(N2CCC3(CC2)CC(N2CCN(Cc4ccncc4)C[C@H]2c2ccccc2C(C)C)C3)ccc1C(=O)NS(=O)(=O)c1cnc(NC[C@H]2CC[C@](C)(O)CC2)c([N+](=O)[O-])c1 [Example 239, 2-((3-fluoro-6-methoxy-1H-pyrrolo[2,3-b]pyridin-5-yl)oxy)-N-((6-((((1r,4r)-4-hydroxy-4-methylcyclohexyl)methyl)amino)-5-nitropyridin-3-yl)sulfonyl)-4-(2-((R)-2-(2-isopropylphenyl)-4-(pyridin-4-ylmethyl)piperazin-1-yl)-7-azaspiro[3.5]nonan-7-yl)benzamide] | 8 | 1 |  | 1 | 1 |

These reach a lower IC50 (RS4;11-BCL-2 D103Y cells). Values come first.

| IC50 (RS4;11-BCL-2 D103Y cells) [nM] | IC50 (RS4;11-BCL-2 F104L cells) [nM] | IC50 (RS4;11-BCL-2 D103E cells) [nM] | IC50 (RS4;11-BCL-2 G101V cells) [nM] | Compound | IC50 (Toledo cells) [nM] |
| --- | --- | --- | --- | --- | --- |
| 5 |  | 1 | 1 | COc1ccc(CN2CCN(C3CC4(CCN(c5ccc(C(=O)NS(=O)(=O)c6cnc(NC[C@H]7CC[C@](C)(O)CC7)c([N+](=O)[O-])c6)c(Oc6cnc7[nH]cc(F)c7c6)c5)CC4)C3)[C@H](c3ccccc3C(C)C)C2)cc1OC [Example 74, 4-(2-((R)-4-(3,4-dimethoxybenzyl)-2-(2-isopropylphenyl)piperazin-1-yl)-7-azaspiro[3.5]nonan-7-yl)-2-((3-fluoro-1H-pyrrolo[2,3-b]pyridin-5-yl)oxy)-N-((6-((((1r,4r)-4-hydroxy-4-methylcyclohexyl)methyl)amino)-5-nitropyridin-3-yl)sulfonyl)benzamide] | 1 |
| 5 |  | 1 | 1 | COc1cc(CN2CCN(C3CC4(CCN(c5ccc(C(=O)NS(=O)(=O)c6cnc(NC[C@H]7CC[C@](C)(O)CC7)c([N+](=O)[O-])c6)c(Oc6cc7c(F)c[nH]c7nc6OC)c5)CC4)C3)[C@H](c3ccccc3C(C)C)C2)ncc1C1CC1 [Example 249, 4-(2-((R)-4-((5-cyclopropyl-4-methoxypyridin-2-yl)methyl)-2-(2-isopropylphenyl)piperazin-1-yl)-7-azaspiro[3.5]nonan-7-yl)-2-((3-fluoro-6-methoxy-1H-pyrrolo[2,3-b]pyridin-5-yl)oxy)-N-((6-((((1r,4r)-4-hydroxy-4-methylcyclohexyl)methyl)amino)-5-nitropyridin-3-yl)sulfonyl)benzamide] |  |
| 3 | 3 |  | 1 | COc1cc(CN2CCN(C3CC4(CCN(c5ccc(C(=O)NS(=O)(=O)c6cnc(NC[C@H]7CC[C@](C)(O)CC7)c([N+](=O)[O-])c6)c(Oc6cc7c(F)c[nH]c7nc6OC)c5)CC4)C3)[C@H](c3ccccc3C(C)C)C2)cnc1C1CC1 [Example 254, 4-(2-((R)-4-((6-cyclopropyl-5-methoxypyridin-3-yl)methyl)-2-(2-isopropylphenyl)piperazin-1-yl)-7-azaspiro[3.5]nonan-7-yl)-2-((3-fluoro-6-methoxy-1H-pyrrolo[2,3-b]pyridin-5-yl)oxy)-N-((6-((((1r,4r)-4-hydroxy-4-methylcyclohexyl)methyl)amino)-5-nitropyridin-3-yl)sulfonyl)benzamide] | 1 |
| 1 |  |  | 1 | COc1cc(CN2CCN(C3CC4(CCN(c5ccc(C(=O)NS(=O)(=O)c6cnc(NC[C@H]7CC[C@](C)(O)CC7)c([N+](=O)[O-])c6)c(Oc6cc7c(F)c[nH]c7nc6OC)c5)CC4)C3)[C@H](c3ccccc3C(C)C)C2)cc(O)n1 [Example 69, 2-((3-fluoro-6-methoxy-1H-pyrrolo[2,3-b]pyridin-5-yl)oxy)-N-((6-((((1r,4r)-4-hydroxy-4-methylcyclohexyl)methyl)amino)-5-nitropyridin-3-yl)sulfonyl)-4-(2-((R)-4-((2-hydroxy-6-methoxypyridin-4-yl)methyl)-2-(2-isopropylphenyl)piperazin-1-yl)-7-azaspiro[3.5]nonan-7-yl)benzamide] |  |
| 1 |  | 1 |  | COc1nc2[nH]cc(F)c2cc1Oc1cc(N2CCC3(CC2)CC(N2CCN(Cc4ccnc5c4NCCO5)C[C@H]2c2ccccc2C(C)C)C3)ccc1C(=O)NS(=O)(=O)c1cnc(NC[C@H]2CC[C@](C)(O)CC2)c([N+](=O)[O-])c1 [Example 192, 4-(2-((R)-4-((2,3-dihydro-1H-pyrido[2,3-b][1,4]oxazin-8-yl)methyl)-2-(2-isopropylphenyl)piperazin-1-yl)-7-azaspiro[3.5]nonan-7-yl)-2-((3-fluoro-6-methoxy-1H-pyrrolo[2,3-b]pyridin-5-yl)oxy)-N-((6-((((1r,4r)-4-hydroxy-4-methylcyclohexyl)methyl)amino)-5-nitropyridin-3-yl)sulfonyl)benzamide] |  |
